The source of these data is patent EP1078630A1, “Use of sigma receptor agonists for the treatment of depression” (WARNER-LAMBERT COMPANY, priority 1999, dated 2001).

The subject of assay [1] is Male Swiss OF1 mice. Briefly: Forced swim test in non-operated Swiss mice (duration of immobility). Format: in vivo. As to the method: (§1) Male Swiss OF1 mice (Breeding center of the Faculty of Pharmacy, Montpellier, France), aged 5-6 weeks and weighing 30 ± 2 g are used throughout the study. Animals are housed in plastic cages in groups. They have free access to laboratory chow and water, except during behavioral experiments, and they are kept in a regulated environment (23 ± 1°C, 40-60% humidity) under a 12-hr light/dark cycle (light on at 7:00 a.m.). Experiments are carried out between 9:00 a.m. and 6:00 p.m., in a soundproof and air-regulated experimental room, to which mice are habituated at least 30 min before each experiment.
(§2) PROG and finasteride are suspended in sesame oil; other drugs are solubilized in distilled water or saline solution. Drugs are injected subcutaneously (s.c.) or intraperitoneally (i.p.), in a volume of 100 µl per 20 g of body weight.
(§3) Each mouse is placed individually in a glass cylinder (diameter 12 cm, height 24 cm) filled with water at a height of 12 cm. Water temperature is maintained at 22-23°C. The animal is forced to swim for 15 min on the first day. Animals are then allowed to return to their home cage. On the second day, each mouse is placed again into the water and forced to swim for 6 min. The session is videotaped and the duration of immobility during the last 5 min is measured. The mouse is considered as immobile when it stops struggling and moves only to remain floating in the water, keeping its head above water. Drugs are administered 30 min before the session on the second day. Finasteride is administered twice, 14 and 2 hr before the session on day 2.
(§4) Results are expressed as means ± S.E.M. Data are analyzed using the Dunnett's multiple comparisons test after an analyzis of variance (ANOVA, F values). The criterion for statistical significance is P < 0.05.

For assay [2] the following is noted: literature (Ukai et al. 1998, Matsuno et al. 1996, Tottori et al. 1997, Kinsora et al. 1998); cited from earlier work.
The subject of assay [3] is AdX/CX Swiss mice. Briefly: Forced swim test in adrenalectomized/castrated (AdX/CX) Swiss mice. Format: in vivo. To be noted: for effect in AdX/CX animals as compared to non-operated mice: comparison of AdX/CX with non-operated animals; for influence of removal of circulating steroids on the antidepressant effect: AdX/CX versus non-operated mice. As to the method:
as §1, §2, §3
About one week after habituation to the animal facilities, animals are anaesthetized with sodium pentobarbital 2%, 100 µl/30 g body weight i.p. Both adrenal glands are removed, through incisions in the back of the animal, just below the breast ribs. The skin is sutured. Then, both testes are ligatured and cut, through an incision in the scrotum. Animals received an injection of gentamycine 10 mg/kg i.p. and recovered within few hours from surgery. After surgery, drinking tap water is replaced by saccharose 1%, NaCI 0.9% solution. Animals are used for behavioral experiments six days after surgery.
as §4

As for `C=CCN1CCC2(C)c3cc(O)ccc3CC1C2C` (single isomer, unassigned; (+)) [(+)-SKF-10,047], in assay [1] (30 mg/kg, Fig. 1B), the immobility time entry is given as “decreases the immobility time”. For the same compound, the “antidepressant effects in animal models” value in assay [2] was “reduce the immobility time in the forced swim test or are active in the tail suspension test”.

On to `CC(C)=CCN1CCC2(C)c3cc(O)ccc3CC1C2C` (single isomer, unassigned; (+)) [(+)-pentazocine], for which, in assay [2], the “antidepressant effects in animal models” value is listed as “reduce the immobility time in the forced swim test or are active in the tail suspension test”.

In the case of `C[C@]12CC[C@H](OS(=O)(=O)O)CC1=CC[C@@H]1[C@@H]2CC[C@]2(C)C(=O)CC[C@@H]12` [DHEAS], the immobility time result in assay [1] (10 mg/kg dose (5-60 mg/kg range tested), Fig. 3A) is on record as “slightly but significantly shortens the immobility time”; in assay [1] (dosages lower or higher than 10 mg/kg within 5-60 mg/kg, Fig. 3A), “devoid of effect”; in assay [3] (AdX/CX animals, 5-60 mg/kg dose-range, Fig. 7), “significant diminution of the immobility time at all the doses examined”. Further, the “effect in AdX/CX animals as compared to non-operated mice” value in assay [3] is listed as “in a more efficient manner as compared to non-operated animals”.

Take `Cc1ccccc1NC(=N)Nc1ccccc1C` [DTG]: the “antidepressant effects in animal models” value in assay [2] is “reduce the immobility time in the forced swim test or are active in the tail suspension test”.

Consider `CC(C)(C)NC(=O)[C@H]1CC[C@H]2[C@@H]3CC[C@H]4NC(=O)C=C[C@]4(C)[C@H]3CC[C@]12C` [Finasteride, finasteride], for which, in assay [3] (finasteride pretreatment (25 mg/kg s.c., 14 and 2 hr before session) in vehicle-treated AdX/CX mice, Fig. 5), the immobility time result was “does not affect the immobility time”. For the same compound, the “effect on the diminution of immobility time induced by igmesine” value in assay [3] (finasteride pretreatment (25 mg/kg s.c., 14 and 2 hr before), igmesine 60 mg/kg, AdX/CX mice, Fig. 5) is recorded as “significantly alters the diminution induced by igmesine”.

Consider `CCCN(CCC)CCc1ccc(OC)c(OCCc2ccccc2)c1` [NE-100], for which the immobility time result in assay [1] (1-10 mg/kg i.p. dose-range, given alone, Fig. 1C) is listed as “does not affect the immobility time by itself”. In addition, in assay [1] (NE-100 10 mg/kg pre-administered i.p. 15 min before igmesine, Fig. 1D), the “antagonism of the reduction of immobility time induced by igmesine” value is on record as “completely antagonizes the reduction of immobility time induced by igmesine”. In addition, the “antagonism of the DHEAS-induced diminution of immobility time” value in assay [1] (NE-100 i.p. 15 min before DHEAS, Fig. 4B) is “prevents the DHEAS-induced diminution of immobility time”. In assay [3] (NE-100 i.p. 15 min before DHEAS, AdX/CX mice, Fig. 8B), the “antagonism of the antidepressant effect of DHEAS” value is given as “fully antagonizes”. Moreover, the “antagonism of the antidepressant effect of igmesine” value in assay [3] (NE-100 i.p. 15 min before igmesine, AdX/CX mice, Fig. 8A) was “fully antagonizes”.

For `COc1cccc2c1CCC(=O)N2CCCN1CCN(c2cccc(Cl)c2)CC1` [OPC14523], the “antidepressant effects in animal models” value in assay [2] is reported as “reduce the immobility time in the forced swim test or are active in the tail suspension test”.

Consider `CC(=O)[C@H]1CC[C@H]2[C@@H]3CC=C4C[C@@H](OS(=O)(=O)O)CC[C@]4(C)[C@H]3CC[C@]12C` [PREGS], for which, in assay [1] (5-40 mg/kg dose range, Fig. 3B), the immobility time result was “fails to affect the immobility time”.

As for `CC(=O)[C@H]1CC[C@H]2[C@@H]3CCC4=CC(=O)CC[C@]4(C)[C@H]3CC[C@]12C` [PROG, progesterone], in assay [1] (5-60 mg/kg dose range, given alone, Fig. 3C), the immobility time entry is reported as “does not affect the immobility time by itself”. In assay [1] (PROG 20-60 mg/kg pre-administered before DHEAS 10 mg/kg, Fig. 3D), the “antagonism of the DHEAS effect on immobility time” value is “significant antagonism of its effect”. In addition, the “antagonism of the igmesine-induced reduction of immobility” value in assay [1] (PROG pre-administered i.p. 15 min before igmesine, Fig. 4A) was “fully blocks the igmesine-induced reduction of immobility”.

In the case of `COc1ccc(CCN2CCN(CCCc3ccccc3)CC2)cc1OC` [SA4503], the “antidepressant effects in animal models” value in assay [2] is reported as “reduce the immobility time in the forced swim test or are active in the tail suspension test”.

With `CNCCCN1c2ccccc2CCc2ccccc21` [desipramine], the immobility time result in assay [1] (30 and 60 mg/kg i.p., Fig. 2) was “shortened the immobility time”. For the same compound, the “influence of removal of circulating steroids on the antidepressant effect” value in assay [3] is recorded as “failed to be affected by the removal of circulating steroids”.

For the compound `CNCCC(Oc1ccc(C(F)(F)F)cc1)c1ccccc1` (stereo not drawn) [fluoxetine], in assay [1] (30 and 60 mg/kg i.p., Fig. 2), the immobility time result is on record as “shortened the immobility time”. The “antidepressant effect in the forced swim test” value in assay [3] (AdX/CX Swiss mice, i.p. 30 min before session on day 2, Fig. 6) was “antidepressant effect”. Also, the “influence of removal of circulating steroids on the antidepressant effect” value in assay [3] is listed as “failed to be affected by the removal of circulating steroids”.

In the case of `CCC(C/C=C/c1ccccc1)(c1ccccc1)N(C)CC1CC1.Cl` (stereo not drawn) [igmesine, (E)-(+)-N-(cyclopropylmethyl)-α-ethyl-N-methyl-α-(3-phenyl-2-propenyl)benzenemethanamine hydrochloride], the immobility time entry is “significantly shortens the immobility time” in assay [1] (60 mg/kg i.p., 30 min before session on day 2, Fig. 1A); “shortens significantly the immobility time” in assay [3] (AdX/CX animals, 20 and 60 mg/kg, dose-dependent, Fig. 5). Also, the “effect in AdX/CX animals as compared to non-operated mice” value in assay [3] was “enhanced”. The “antidepressant effects in animal models” value in assay [2] is given as “reduce the immobility time in the forced swim test or are active in the tail suspension test”.
